Experimental data reported in DBAASP.
≈ marks a conversion by molar mass, not a printed value.

Legend:
Assay in all cases: ≥ marks a high value that may be exact or a test limit, other limits are often not marked, values filed in µg/mL are converted to µM
[1] = test system: Acinetobacter baumannii ATCC BAA-747
[2] = test system: Candida albicans ATCC 10231
[3] = test system: Candida albicans ATCC 2002
[4] = test system: Enterococcus faecium NTCC 12697
[5] = test system: Escherichia coli ATCC 25922
[6] = test system: Escherichia coli ATCC 8739
[7] = test system: Escherichia coli ATCC BAA-2340
[8] = test system: Escherichia coli NCTC 13846
[9] = test system: Klebsiella pneumoniae ATCC 43816
[10] = test system: Pseudomonas aeruginosa ATCC 9027
[11] = test system: Pseudomonas aeruginosa CMCCB 10104
[12] = test system: Staphylococcus aureus ATCC 25923
[13] = test system: Staphylococcus aureus ATCC 6538
[14] = test system: Staphylococcus aureus NCTC 12493
[15] = test system: Acinetobacter baumannii 1980
[16] = test system: Acinetobacter baumannii 2982
[17] = test system: Acinetobacter baumannii 4956
[18] = test system: Acinetobacter baumannii ATCC 19606
[19] = test system: Acinetobacter baumannii I NM8
Escherichia coli 780 = test system: Escherichia coli 780
Escherichia coli 850 = test system: Escherichia coli 850
[20] = test system: Escherichia coli ATCC 25726
[21] = test system: Klebsiella pneumoniae ATCC 700603
[22] = test system: Pseudomonas aeruginosa 2760
[23] = test system: Pseudomonas aeruginosa 9132
[24] = test system: Pseudomonas aeruginosa ATCC 27853
[25] = test system: Staphylococcus aureus 725
[26] = test system: Staphylococcus aureus 936
[27] = test system: Candida albicans NCTC 3179
[28] = test system: Enterococcus faecalis NCTC 12697
[29] = test system: Fusobacterium nucleatum NCTC 10562
[30] = test system: Pseudomonas aeruginosa PAO239
[31] = test system: Streptococcus mutans ATCC 10449
[32] = test system: Carnobacterium maltaromaticum UI49
[33] = test system: Lacticaseibacillus casei NCDO 2713
[34] = test system: Lacticaseibacillus casei subsp. casei NCDO 161
[35] = test system: Lactiplantibacillus plantarum 965
[36] = test system: Lactiplantibacillus plantarum UI50
[37] = test system: Latilactobacillus curvatus 89
[38] = test system: Latilactobacillus sakei 706
[39] = test system: Latilactobacillus sakei NCDO 2714
[40] = test system: Pediococcus acidilactici CH
[41] = test system: Pediococcus pentosaceus NCDO 990
[42] = test system: Pediococcus pentosaceus Pac1.0
[43] = test system: Weissella viridescens NCDO 1655
[44] = test system: Bacillus subtilis CCT 2471
Bacillus thuringiensis = test system: Bacillus thuringiensis
[45] = test system: Enterobacter cloacae ATCC 23355
[46] = test system: Escherichia coli CCT 1371
Proteus mirabilis = test system: Proteus mirabilis
[47] = test system: Pseudomonas aeruginosa ATCC 15442
[48] = test system: Staphylococcus epidermidis
[49] = test system: Staphylococcus saprophyticus

CC[C@H](C)[C@H](NC(=O)[C@H](CC(N)=O)NC(=O)[C@@H](NC(=O)[C@H](C)N)C(C)C)C(=O)N1CCC[C@H]1C(=O)N[C@@H](Cc1ccccc1)C(=O)N[C@@H](CCCCN)C(=O)N[C@H](C(=O)N[C@@H](Cc1cnc[nH]1)C(=O)N[C@@H](Cc1ccccc1)C(=O)N[C@@H](CCCN=C(N)N)C(=O)N[C@H]1CSSC[C@@H](C(=O)O)NC(=O)[C@H](Cc2ccccc2)NC(=O)[C@H](C)NC(=O)[C@H](C)NC(=O)[C@H](CCCCN)NC1=O)C(C)C [AVNIPFKVHFRCKAAFC]
MIC [1]: ≥ 512 µM
MIC [2]: > 512 µM
MIC [3]: 10.4 µM (≈ 20.2 µg/mL)
MIC [4]: ≥ 512 µM
MIC [5]: 10.4 µM (≈ 20.2 µg/mL)
MIC [6]: ≥ 32 µM
MIC [7]: ≥ 32 µM
MIC [8]: ≥ 32 µM
MIC [9]: ≥ 64 µM
MIC [10]: 64 µM (≈ 125 µg/mL)
MIC [11]: 20.7 µM (≈ 40.4 µg/mL)
MIC [12]: 5.18 µM (≈ 10.1 µg/mL)
MIC [13]: > 512 µM
MIC [14]: ≥ 256 µM

CC(C)C[C@H](NC(=O)[C@@H](NC(=O)[C@H](CC(N)=O)NC(=O)[C@H](C)NC(=O)CNC(=O)[C@H](CC(C)C)NC(=O)[C@H](CCCN=C(N)N)NC(=O)[C@H](CC(C)C)NC(=O)[C@H](C)NC(=O)[C@H](CCCCN)NC(=O)CNC(=O)[C@H](CC(C)C)NC(=O)[C@H](CC(C)C)NC(=O)[C@H](CO)NC(=O)CNC(=O)[C@H](Cc1ccccc1)NC(=O)CN)C(C)C)C(N)=O [GFGSLLGKALRLGANVL]
MIC [15]: 9.49 µM (≈ 16 µg/mL)
MIC [16]: 2.37 µM (≈ 4 µg/mL)
MIC [17]: 9.49 µM (≈ 16 µg/mL)
MIC [18]: 4.74 µM (≈ 8 µg/mL)
MIC [19]: 3 µM (≈ 5.06 µg/mL)
MIC (Escherichia coli 780): 4.74 µM (≈ 8 µg/mL)
MIC (Escherichia coli 850): 9.49 µM (≈ 16 µg/mL)
MIC [20]: 6 µM (≈ 10.1 µg/mL)
MIC [5]: 4.74 µM (≈ 8 µg/mL)
MIC [21]: 25 µM (≈ 42.1 µg/mL)
MIC [22]: ≥ 75.9 µM
MIC [23]: ≥ 38 µM
MIC [24]: 25 µM (≈ 42.1 µg/mL)
MIC [25]: 4.74 µM (≈ 8 µg/mL)
MIC [26]: 19 µM (≈ 32 µg/mL)

CC[C@H](C)[C@H](NC(=O)CNC(=O)CNC(=O)[C@@H](NC(=O)[C@H](Cc1ccccc1)NC(=O)[C@H](C)NC(=O)[C@H](CCCCN)NC(=O)CNC(=O)[C@H](Cc1ccccc1)NC(=O)[C@H](CCCCN)NC(=O)CNC(=O)[C@H](CC(C)C)NC(=O)[C@H](CO)NC(=O)[C@H](Cc1cnc[nH]1)NC(=O)[C@H](C)NC(=O)[C@H](Cc1ccccc1)NC(=O)[C@H](CCC(=O)O)NC(=O)[C@H](CCCCN)NC(=O)[C@@H](NC(=O)CN)[C@@H](C)CC)C(C)C)C(=O)N[C@@H](CC(C)C)C(=O)N[C@@H](CC(N)=O)C(=O)N[C@@H](CCC(N)=O)C(=O)O [GIKEFAHSLGKFGKAFVGGILNQ]
MIC [27]: ≥ 100 µM
MIC [28]: ≥ 100 µM
MIC [20]: ≥ 50 µM
MIC [5]: > 200 µM
MIC [29]: 12.5 µM (≈ 30.2 µg/mL)
MIC [24]: > 100 µM
MIC [30]: ≥ 100 µM
MIC [12]: > 200 µM
MIC [31]: ≥ 50 µM

CC[C@H](C)[C@H](NC(=O)[C@H](C)NC(=O)[C@@H](NC(=O)[C@H](C)NC(=O)CNC(=O)[C@H](CCSC)NC(=O)[C@H](CCC(N)=O)NC(=O)[C@H](CC(C)C)NC(=O)[C@H](CO)NC(=O)[C@H](Cc1ccc(O)cc1)NC(=O)[C@H](C)NC(=O)[C@H](CO)NC(=O)[C@H](CO)NC(=O)[C@@H](N)CCCCN)[C@@H](C)O)C(=O)N[C@@H](CCCCN)C(=O)N[C@@H](CCC(N)=O)C(=O)N[C@H](C(=O)N[C@@H](CCCCN)C(=O)N[C@@H](CCCCN)C(=O)N[C@@H](CC(C)C)C(=O)N[C@@H](Cc1ccccc1)C(=O)N[C@@H](CCCCN)C(=O)N[C@@H](CCCCN)C(=O)N[C@@H](Cc1c[nH]c2ccccc12)C(=O)NCC(=O)N[C@@H](Cc1c[nH]c2ccccc12)C(=O)O)C(C)C [KSSAYSLQMGATAIKQVKKLFKKWGW]
MIC [32]: 6 µM (≈ 17.9 µg/mL)
MIC [33]: 6 µM (≈ 17.9 µg/mL)
MIC [34]: 0.25 µM (≈ 0.746 µg/mL)
MIC [35]: 0.3 µM (≈ 0.896 µg/mL)
MIC [36]: 6 µM (≈ 17.9 µg/mL)
MIC [37]: 0.5 µM (≈ 1.49 µg/mL)
MIC [38]: 0.5 µM (≈ 1.49 µg/mL)
MIC [39]: 0.06 µM (≈ 0.179 µg/mL)
MIC [40]: 0.5 µM (≈ 1.49 µg/mL)
MIC [41]: 6 µM (≈ 17.9 µg/mL)
MIC [42]: 0.1 µM (≈ 0.299 µg/mL)
MIC [43]: 0.02 µM (≈ 0.0597 µg/mL)

CC[C@H](C)[C@H](NC(=O)CNC(=O)[C@H](CCCCN)NC(=O)[C@H](CC(C)C)NC(=O)[C@H](CC(N)=O)NC(=O)[C@@H](N)CC(C)C)C(=O)N[C@@H](Cc1ccccc1)C(=O)N[C@@H](CCCCN)C(=O)N[C@@H](CCCCN)C(=O)N[C@H](C(=O)N[C@@H](C)C(=O)N[C@@H](CO)C(=O)N[C@@H](CC(C)C)C(=O)N[C@@H](CC(C)C)C(=O)N[C@H](C(=O)O)[C@@H](C)O)C(C)C [LNLKGIFKKVASLLT]
MIC [44]: ≥ 60 µM
MIC (Bacillus thuringiensis): ≥ 60 µM
MIC [45]: ≥ 60 µM
MIC [5]: 6 µM (≈ 9.87 µg/mL)
MIC [46]: 6 µM (≈ 9.87 µg/mL)
MIC (Proteus mirabilis): ≥ 60 µM
MIC [47]: 30 µM (≈ 49.4 µg/mL)
MIC [12]: 6 µM (≈ 9.87 µg/mL)
MIC [13]: > 60 µM
MIC [48]: ≥ 60 µM
MIC [49]: 6 µM (≈ 9.87 µg/mL)
